# Data taken from patent publication US20170081338A1, “SUBSTITUTED HETEROARYL COMPOUNDS AND METHODS OF USE” (Sunshine Lake Pharma Co., Ltd., priority 2015, published 2017).
# How the values were obtained:
# [1] = Compound stability in human liver microsomes; format: in vitro ADME; conditions: pH 7.4; for half-life at 5 μM: human liver microsomes 0.5 mg protein/mL, compound 5 μM, NADPH, 37° C., read-out: Human T1/2; for CLint scaled at 5 μM: human liver microsomes, in vivo CLint extrapolated
# Method: (§1) Human or rat liver microsomes incubations were conducted in duplicate in polypropylene tubes. The typical incubation mixtures consisted of human or rat liver microsomes (0.5 mg protein/mL), compounds of interest (5 μM) and NADPH (1.0 mM) in a total volume of 200 μL potassium phosphate buffer (PBS, 100 mM, pH 7.4). Compounds were dissolved in DMSO and diluted with PBS such that the final concentration of DMSO was 0.05%. The enzymatic reactions were commenced with the addition of protein after a 3-min preincubation and incubated in a water bath open to the air at 37° C. Reactions were terminated at various time points (0, 5, 10, 15, 30, 60 min) by adding equal volume of ice-cold acetonitrile. The samples were stored at −80° C. until LC/MS/MS assays.
# (§2) The concentrations of compounds in the incubation mixtures of human or rat liver microsomes were determined by a LC/MS/MS method. The ranges of the linearity in the concentration range were determined for each tested compounds.
# (§3) A parallel incubation was performed using denatured microsomes as the negative control, and reactions were terminated at various time points (0, 15, 60 min) after incubation at 37° C.
# (§4) Dextromethorphan (70 μM) was selected as the positive control, and reactions were terminated at various time points (0, 5, 10, 15, 30, 60 min) after incubation at 37° C. Both positive and negative control samples were included in each assay to ensure the integrity of the microsomal incubation system.
# (§5) The concentrations of compounds in human or rat liver microsome incubations were plotted as a percentage of the relevant zero time point control for each reaction. The in vivo CLint were extrapolated (ref.: Naritomi, Y.; Terashita, S.; Kimura, S.; Suzuki, A.; Kagayama, A.; and Sugiyama, Y.; Prediction of human hepatic clearance from in vivo animal experiments and in vitro metabolic studies with liver microsomes from animals and humans. Drug Metab. Dispos., 2001, 29: 1316-1324).
# Aurora-A (h) = target: T1, Aurora-A (h) (Homo sapiens, UniProt O14965); experiment: Aurora-A (h) kinase assay; format: biochemical
# T1 construct: purchased Millipore UK Ltd (contract assay service)
# T1 sequence (O14965 1-403): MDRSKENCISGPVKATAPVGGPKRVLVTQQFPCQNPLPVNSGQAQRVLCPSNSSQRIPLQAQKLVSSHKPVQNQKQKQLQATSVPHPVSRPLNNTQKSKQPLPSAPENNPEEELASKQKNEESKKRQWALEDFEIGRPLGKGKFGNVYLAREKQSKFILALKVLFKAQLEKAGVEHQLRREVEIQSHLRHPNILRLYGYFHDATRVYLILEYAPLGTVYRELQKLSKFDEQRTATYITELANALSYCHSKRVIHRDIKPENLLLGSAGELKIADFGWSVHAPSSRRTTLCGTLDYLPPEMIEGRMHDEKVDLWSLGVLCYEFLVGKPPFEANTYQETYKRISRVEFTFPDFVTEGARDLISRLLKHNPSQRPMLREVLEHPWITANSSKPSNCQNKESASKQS
# Method: The above assay procedure can be used to determine the IC50 for inhibition and/or the inhibition constant, Ki. The IC50 is defined as the concentration of compound required to reduce the enzyme activity by 50% under the condition of the assay. The IC50 value is estimated by preparing a 10 point curve using a 1/2 log dilution series (for example, a typical curve may be prepared using the following compound concentrations: 3 μM, 1 μM, 0.3 μM, 0.1 μM, 0.03 μM, 0.01 μM, 0.003 μM, 0.001 μM, 0.0003 μM and 0 μM).
# Aurora-A (h) is incubated with 8 mM MOPS pH 7.0, 0.2 mM EDTA, 200 μM LRRASLG (Kemptide), 10 mM MgAcetate and [γ-^33P-ATP] (specific activity approx. 500 cpm/pmol, concentration as required). The reaction is initiated by the addition of the MgATP mix. After incubation for 40 minutes at room temperature, the reaction is stopped by the addition of 3% phosphoric acid solution. 10 μL of the reaction is then spotted onto a P30 filtermat and washed three times for 5 minutes in 75 mM phosphoric acid and once in methanol prior to drying and scintillation counting.
# The kinase assays described herein were performed at Millipore UK Ltd, Dundee Technology Park, Dundee DD2 1SW, UK.
# [2] = Pharmacokinetics after intravenous and oral administration in rats; format: in vivo; conditions: for Clearance (CL) after iv dosing / AUC(0-t) / half-life / Vd: dose 1 mg/kg, iv dosing; for F: oral bioavailability; for AUC(0-t) / half-life / Vd: rat, plasma; for Vd: read-out: Vss
# Method: The LC/MS/MS system used in the analysis consists of an Agilent 1200 Series vacuum degasser, binary pump, well-plate autosampler, thermostatted column compartment, the Agilent G6430 Triple Quadrupole Mass Spectrometer with an electrosprayionization (ESI) source. Quantitative analysis was carried out using MRM mode. The parameters for MRM transitions are in the Table A.
# An Agilent XDB-C18, 2.1×30 mm, 3.5 μM column was used for the analysis. 5 μL of the samples were injected. Analysis condition: The mobile phase was 0.1% formic acid in water (A) and 0.1% formic acid in methanol (B). The flow rate was 0.4 mL/min. And the gradient of Mobile phase was in the Table B.
# Alternatively, an Agilent 6330 series LC/MS/MS spectrometer equipped with G1312A binary pumps, a G1367A autosampler and a G1314C UV detector were used in the analysis. An ESI source was used on the LC/MS/MS spectrometer. The analysis was done in positive ion mode as appropriate and the MRM transition for each analyte was optimized using standard solution. A Capcell MP-C18 100×4.6 mm I.D., […] column (Phenomenex, Torrance, Calif., USA) was used during the analysis. The mobile phase was 5 mM ammonia acetate, 0.1% MeOH in water (A): 5 mM ammonia acetate, 0.1% MeOH in acetonitrile (B) (70/30, v/v). The flow rate was 0.6 mL/min. Column was maintained at ambient temperature. 20 μL of the samples were injected.
# The compounds disclosed herein are assessed in pharmacokinetic studies in mice, rats, dogs or monkeys. The compounds are administered as a water solution, 2% HPMC+1% TWEEN®80 in water solution, 5% DMSO+5% solutol in saline, 4% MC suspension or capsule. For the intravenous administration, the animals are generally given at 0.5, 1 or 2 mg/kg dose. For the oral (p.o.) dosing, mice and rats are generally given 0.5, 1, 5 or 10 mg/kg dose, and dogs and monkeys are generally given 10 mg/kg dose. The blood samples (0.3 mL) are drawn at 0.25, 0.5, 1.0, 2.0, 3.0, 4.0, 6.0, 8.0, 12 and 24 h time points or 0.083, 0.25, 0.5, 1.0, 2.0, 4.0, 6.0, 8.0 and 24 h time points and centrifuged at 3,000 or 4000 rpm for 2 to 10 min. The plasma solutions are collected, and stored at −20° C. or −70° C. until analyzed by LC/MS/MS as described above.
# [3] = Compound stability in rat liver microsomes; format: in vitro ADME; conditions: pH 7.4; for half-life at 5 μM: rat liver microsomes 0.5 mg protein/mL, compound 5 μM, NADPH, 37° C., read-out: Rat T1/2; for CLint scaled at 5 μM: rat liver microsomes, in vivo CLint extrapolated
# Method: as §1, §2, §3, §4, §5
SMILES,half-life at 5 μM [1],CLint scaled at 5 μM [1],IC50 (Aurora-A (h)),Clearance (CL) after iv dosing [2],F [2],AUC(0-t) [2],half-life [2],Vd [2],half-life at 5 μM [3],CLint scaled at 5 μM [3]
"Cn1cc(Nc2ncc(Cl)c(N[C@@H]3COC4C3OC[C@@H]4NS(=O)(=O)C3CC3)n2)cn1 (stereo partly drawn) [Ex. 4, N-((3S,6R)-6-((5-chloro-2-((1-methyl-1H-pyrazol-4-yl)amino)pyrimidin-4-yl)amino)hexahydrofuro[3,2-b]furan-3-yl)cyclopropanesulfonamide]",563 min,3.09 mL/min/kg,53 nM,23.7 mL/min/kg,51.7%,712 ng·h/mL,21 min,0.69 L/kg,103 min,24 mL/min/kg
"Cn1cc(Nc2ncc(Cl)c(N[C@H]3COC4C3OC[C@H]4NS(=O)(=O)CC(F)(F)F)n2)cn1 (stereo partly drawn) [Ex. 5, N-((3R,6S)-6-((5-chloro-2-((1-methyl-1H-pyrazol-4-yl)amino)pyrimidin-4-yl)amino)hexahydrofuro[3,2-b]furan-3-yl)-2,2,2-trifluoroethanesulfonamide]",243 min,7.16 mL/min/kg,1000 nM,38.8 mL/min/kg,44.0%,420 ng·h/mL,108 min,2.01 L/kg,82.7 min,30 mL/min/kg
"Cn1cc(Nc2ncc(Cl)c(N[C@@H]3COC4C3OC[C@@H]4NS(=O)(=O)CC3CCOC3)n2)cn1 (stereo partly drawn) [Ex. 16, N-((3S,6R)-6-((5-chloro-2-((1-methyl-1H-pyrazol-4-yl)amino)pyrimidin-4-yl)amino)hexahydrofuro[3,2-b]furan-3-yl)-1-(tetrahydrofuran-3-yl)methanesulfonamide]",39.1 min,44.4 mL/min/kg,17 nM,–,–,–,–,–,106 min,23.4 mL/min/kg
"CC(C)CS(=O)(=O)N[C@@H]1COC2C1OC[C@@H]2Nc1nc(Nc2cnn(C)c2)ncc1Cl (stereo partly drawn) [Ex. 13, N-((3R,6S)-6-((5-chloro-2-((1-methyl-1H-pyrazol-4-yl)amino)pyrimidin-4-yl)amino)hexahydrofuro[3,2-b]furan-3-yl)-2-methylpropane-1-sulfonamide]",32.9 min,52.8 mL/min/kg,1030 nM,57 mL/min/kg,74.5%,291 ng·h/mL,58.2 min,2.56 L/kg,41.4 min,60 mL/min/kg
"Cn1cc(Nc2ncc(Cl)c(N[C@H]3COC4C3OC[C@H]4NS(=O)(=O)N3CCCC3)n2)cn1 (stereo partly drawn) [Ex. 6, N-((3R,6S)-6-((5-chloro-2-((1-methyl-1H-pyrazol-4-yl)amino)pyrimidin-4-yl)amino)hexahydrofuro[3,2-b]furan-3-yl)pyrrolidine-1-sulfonamide]",37.3 min,46.5 mL/min/kg,984 nM,53.8 mL/min/kg,44.3%,309 ng·h/mL,34.8 min,1.54 L/kg,37.7 min,65.8 mL/min/kg
"CC(C)S(=O)(=O)N[C@H]1COC2C1OC[C@H]2Nc1nc(Nc2cnn(C)c2)ncc1Cl (stereo partly drawn) [Ex. 15, N-((3S,6R)-6-((5-chloro-2-((1-methyl-1H-pyrazol-4-yl)amino)pyrimidin-4-yl)amino)hexahydrofuro[3,2-b]furan-3-yl)propane-2-sulfonamide]",143 min,12.1 mL/min/kg,34 nM,23.2 mL/min/kg,86.5%,726 ng·h/mL,47.4 min,1.11 L/kg,91.6 min,27.1 mL/min/kg
"Cn1cc(Nc2ncc(Cl)c(N[C@@H]3COC4C3OC[C@@H]4Nc3ccc(C#N)nn3)n2)cn1 (stereo partly drawn) [Ex. 3, 6-(((3S,6R)-6-((5-chloro-2-((1-methyl-1H-pyrazol-4-yl)amino)pyrimidin-4-yl)amino)hexahydrofuro[3,2-b]furan-3-yl)amino)pyridazine-3-carbonitrile]",142 min,12.3 mL/min/kg,45 nM,–,–,–,–,–,22 min,113 mL/min/kg
